The target of experiment [1] is T1, human polycystin-2 CTD EF hand (I704-P797) (Homo sapiens, UniProt Q13563).
T1 construct: The C-terminal fragment of the human polycystin-2 (I704-P797) was cloned into the PET19b vector; 10xHis (N); made in house; host or cells: E. coli BL21 (DE3)
T1 sequence (Q13563 704-797): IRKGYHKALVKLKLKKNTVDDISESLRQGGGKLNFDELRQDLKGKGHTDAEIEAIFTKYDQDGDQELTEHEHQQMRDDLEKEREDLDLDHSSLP
To be noted: Yang et al., 2015; read-out: Kd previously reported for this peptide; cited from earlier work.

The target in experiment [2] is T2, polycystin-2 (Homo sapiens, UniProt Q13563).
T2 construct: expressed in transfected cells
T2 sequence (Q13563 1-968): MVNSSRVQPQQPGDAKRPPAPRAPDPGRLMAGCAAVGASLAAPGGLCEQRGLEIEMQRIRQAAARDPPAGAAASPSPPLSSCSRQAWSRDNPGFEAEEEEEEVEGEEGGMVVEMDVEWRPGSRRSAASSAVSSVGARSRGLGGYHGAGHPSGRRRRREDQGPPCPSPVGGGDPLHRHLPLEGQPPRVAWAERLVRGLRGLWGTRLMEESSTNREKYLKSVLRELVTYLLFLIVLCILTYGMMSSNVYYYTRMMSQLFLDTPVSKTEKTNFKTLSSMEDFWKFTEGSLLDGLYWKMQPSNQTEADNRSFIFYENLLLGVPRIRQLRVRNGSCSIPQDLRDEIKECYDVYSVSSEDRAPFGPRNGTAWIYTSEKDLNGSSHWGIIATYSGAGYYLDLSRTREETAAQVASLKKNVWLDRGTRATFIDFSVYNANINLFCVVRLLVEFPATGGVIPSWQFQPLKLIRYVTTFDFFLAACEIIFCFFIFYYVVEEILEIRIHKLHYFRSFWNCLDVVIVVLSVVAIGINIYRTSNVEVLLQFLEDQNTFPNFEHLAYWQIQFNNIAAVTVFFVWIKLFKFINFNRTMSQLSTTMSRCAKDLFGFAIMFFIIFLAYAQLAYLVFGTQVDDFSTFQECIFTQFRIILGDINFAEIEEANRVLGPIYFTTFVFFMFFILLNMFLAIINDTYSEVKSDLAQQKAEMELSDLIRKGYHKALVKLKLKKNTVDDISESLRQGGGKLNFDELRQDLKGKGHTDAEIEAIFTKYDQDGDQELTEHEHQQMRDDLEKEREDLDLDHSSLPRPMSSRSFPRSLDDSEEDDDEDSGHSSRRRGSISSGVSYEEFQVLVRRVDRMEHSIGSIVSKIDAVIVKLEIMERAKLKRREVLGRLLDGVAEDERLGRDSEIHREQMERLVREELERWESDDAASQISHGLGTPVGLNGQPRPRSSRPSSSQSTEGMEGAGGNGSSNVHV
Description: Inside-out cilia patch of HEK cells, voltage dependent channel opening at low and high intraciliary Ca2+. The experiment is classed as cell-based. The following applies: from low (100 nM) to high (100 μM) Ca2+, WT channels. An excerpt:
To test whether calcium occupancy of the EF hand is responsible for CDM and CDD of human polycystin-2, we generated double alanine mutations at the −X ([…]) and −Z vertices (E774A) which abolished Ca^2+ affinity for the CTD fragment (FIG. 17B). We then expressed the −X-Z double mutation in PKD2-GFP in a PKD2^null HEK cell line, so that exogenous channels could be assayed without the contribution of endogenous PKD2 alleles, as previously described (Vien et al., 2020). The stably expressed human WT and −X-Z channels trafficked to the primary cilia, and glass electrodes with submicron apertures were fabricated to form high resistance electrical seals with the GFP-illuminated cilia membranes (FIG. 18A). […] These experiments were performed with only one channel present in the membrane, so that stochastic effects on single channel states could be determined. […]
Electrophysiology. The electrophysiologist was blinded by a third party in the laboratory, where test groups were assigned a letter to conceal the genetic identity of the cells being evaluated. […] Ciliary ion currents were recorded using borosilicate glass electrodes polished to resistances of 14-23 MΩ using the cilium patch method previously described (Vien et al., 2020). Single channel currents measured in the inside-out configuration were recorded in symmetrical sodium concentrations. […]

The values below come from patent publication US20210369677A1, “SMALL MOLECULE ACTIVATORS OF POLYCYSTIN-2 (PKD2) AND USES THEREOF” (Northwestern University, priority 2020, published 2021).

What is called Kd is the free concentration of one partner at which half of the binding sites on the other are occupied at equilibrium, for simple one-to-one binding.

Consider `[Ca+2]` [Ca^2+, calcium], for which the Kd in experiment [1] is 22 µM. The “Shift in the voltage-dependence of half maximal open probability (V1/2)” value in experiment [2] is −47 mV.
